Test results taken from ChEMBL document CHEMBL5678818, “Discovery of potent SOS1 inhibitors that block RAS activation via disruption of the RAS-SOS1 interaction” (Proc Natl Acad Sci U S A, 2019).

Experiments:
[1] = system: Tyrosine-protein kinase ABL1 (Homo sapiens), P00519 [Q252H]; test: Inhibition of nonphosphorylated ABL1 Q252H mutant (unknown origin) assessed as residual activity at 1000 nM by KINOMEscan analysis relative to control
[2] = molecular target: 5'-AMP-activated protein kinase catalytic subunit alpha-1 (Homo sapiens) (UniProt Q13131); test: Inhibition of AMPK-alpha1 (unknown origin) assessed as residual activity at 1000 nM by KINOMEscan analysis relative to control
[3] = molecular target: Dual specificity protein kinase CLK4 (Homo sapiens) (UniProt Q9HAZ1); test: Inhibition of CLK4 (unknown origin) assessed as residual activity at 1000 nM by KINOMEscan analysis relative to control
[4] = molecular target: Casein kinase I isoform gamma-3 (Homo sapiens) (UniProt Q9Y6M4); test: Inhibition of CSNK1G3 (unknown origin) assessed as residual activity at 1000 nM by KINOMEscan analysis relative to control
[5] = molecular target: Tyrosine-protein kinase Fes/Fps (Homo sapiens) (UniProt P07332); test: Inhibition of FES (unknown origin) assessed as residual activity at 1000 nM by KINOMEscan analysis relative to control
[6] = molecular target: T1, Hormonally up-regulated neu tumor-associated kinase (Homo sapiens) (UniProt P57058); test: Inhibition of HUNK (unknown origin) assessed as residual activity at 1000 nM by KINOMEscan analysis relative to control
T1 sequence (whole entry): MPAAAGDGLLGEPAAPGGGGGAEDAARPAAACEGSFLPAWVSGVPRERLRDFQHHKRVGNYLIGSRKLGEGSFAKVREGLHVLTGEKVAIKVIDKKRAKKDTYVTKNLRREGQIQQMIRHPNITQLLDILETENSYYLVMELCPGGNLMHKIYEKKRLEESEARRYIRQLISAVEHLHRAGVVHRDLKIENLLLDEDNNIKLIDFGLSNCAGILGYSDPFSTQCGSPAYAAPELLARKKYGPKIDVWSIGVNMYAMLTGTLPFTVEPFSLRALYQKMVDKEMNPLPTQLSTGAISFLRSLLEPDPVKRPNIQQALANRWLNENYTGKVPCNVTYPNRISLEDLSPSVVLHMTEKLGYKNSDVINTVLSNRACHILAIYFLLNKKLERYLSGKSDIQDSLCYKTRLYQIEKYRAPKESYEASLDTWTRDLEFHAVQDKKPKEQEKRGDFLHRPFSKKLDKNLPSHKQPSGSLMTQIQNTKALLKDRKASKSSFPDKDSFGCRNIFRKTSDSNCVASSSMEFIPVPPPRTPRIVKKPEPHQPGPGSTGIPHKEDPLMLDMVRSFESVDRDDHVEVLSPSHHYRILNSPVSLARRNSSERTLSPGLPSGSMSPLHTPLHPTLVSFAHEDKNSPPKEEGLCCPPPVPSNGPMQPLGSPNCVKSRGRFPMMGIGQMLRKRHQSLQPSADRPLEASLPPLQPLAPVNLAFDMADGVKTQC

[7] = system: Mast/stem cell growth factor receptor Kit (Homo sapiens), P10721 [L576P]; test: Inhibition of KIT L576P mutant (unknown origin) assessed as residual activity at 1000 nM by KINOMEscan analysis relative to control
[8] = molecular target: T2, Myosin light chain kinase family member 4 (Homo sapiens) (UniProt Q86YV6); test: Inhibition of MYLK4 (unknown origin) assessed as residual activity at 1000 nM by KINOMEscan analysis relative to control
T2 sequence (whole entry): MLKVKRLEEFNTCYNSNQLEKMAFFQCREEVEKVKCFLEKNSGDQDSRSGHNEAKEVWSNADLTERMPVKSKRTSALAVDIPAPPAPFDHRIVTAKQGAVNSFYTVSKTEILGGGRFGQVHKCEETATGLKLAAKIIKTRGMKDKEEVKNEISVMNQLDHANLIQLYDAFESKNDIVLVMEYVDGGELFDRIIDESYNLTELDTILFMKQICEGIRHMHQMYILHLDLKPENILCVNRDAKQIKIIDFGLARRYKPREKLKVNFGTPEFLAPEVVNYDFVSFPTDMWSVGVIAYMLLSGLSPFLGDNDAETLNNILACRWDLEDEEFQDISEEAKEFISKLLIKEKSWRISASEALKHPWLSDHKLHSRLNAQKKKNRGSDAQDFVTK

[9] = molecular target: T3, Tyrosine-protein kinase ZAP-70 (Homo sapiens) (UniProt P43403); test: Inhibition of ZAP70 (unknown origin) assessed as residual activity at 1000 nM by KINOMEscan analysis relative to control
T3 sequence (whole entry): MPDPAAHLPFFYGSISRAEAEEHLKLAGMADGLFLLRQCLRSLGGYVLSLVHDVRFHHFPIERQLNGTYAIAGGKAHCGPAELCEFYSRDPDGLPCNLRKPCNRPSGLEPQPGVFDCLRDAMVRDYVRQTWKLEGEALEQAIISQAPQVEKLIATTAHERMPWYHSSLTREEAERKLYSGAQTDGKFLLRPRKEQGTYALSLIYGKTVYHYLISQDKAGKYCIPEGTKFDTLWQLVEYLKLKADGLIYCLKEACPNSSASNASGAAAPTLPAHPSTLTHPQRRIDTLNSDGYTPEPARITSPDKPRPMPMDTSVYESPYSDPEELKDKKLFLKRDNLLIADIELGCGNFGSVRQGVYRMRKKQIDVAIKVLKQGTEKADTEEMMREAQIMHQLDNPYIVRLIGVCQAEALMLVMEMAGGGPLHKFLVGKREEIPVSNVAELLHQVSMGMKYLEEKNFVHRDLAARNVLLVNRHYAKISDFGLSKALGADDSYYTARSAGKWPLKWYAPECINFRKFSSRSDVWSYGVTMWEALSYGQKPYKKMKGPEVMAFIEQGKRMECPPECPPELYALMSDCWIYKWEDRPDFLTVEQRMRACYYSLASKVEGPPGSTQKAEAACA

[10] = molecular target: Microtubule-associated serine/threonine-protein kinase 1 (Homo sapiens) (UniProt Q9Y2H9); test: Inhibition of MAST1 (unknown origin) assessed as residual activity at 1000 nM by KINOMEscan analysis relative to control
Microtubule-associated serine/threonine-protein kinase 1 (Homo sapiens), sequence (Q9Y2H9 whole entry, looked up): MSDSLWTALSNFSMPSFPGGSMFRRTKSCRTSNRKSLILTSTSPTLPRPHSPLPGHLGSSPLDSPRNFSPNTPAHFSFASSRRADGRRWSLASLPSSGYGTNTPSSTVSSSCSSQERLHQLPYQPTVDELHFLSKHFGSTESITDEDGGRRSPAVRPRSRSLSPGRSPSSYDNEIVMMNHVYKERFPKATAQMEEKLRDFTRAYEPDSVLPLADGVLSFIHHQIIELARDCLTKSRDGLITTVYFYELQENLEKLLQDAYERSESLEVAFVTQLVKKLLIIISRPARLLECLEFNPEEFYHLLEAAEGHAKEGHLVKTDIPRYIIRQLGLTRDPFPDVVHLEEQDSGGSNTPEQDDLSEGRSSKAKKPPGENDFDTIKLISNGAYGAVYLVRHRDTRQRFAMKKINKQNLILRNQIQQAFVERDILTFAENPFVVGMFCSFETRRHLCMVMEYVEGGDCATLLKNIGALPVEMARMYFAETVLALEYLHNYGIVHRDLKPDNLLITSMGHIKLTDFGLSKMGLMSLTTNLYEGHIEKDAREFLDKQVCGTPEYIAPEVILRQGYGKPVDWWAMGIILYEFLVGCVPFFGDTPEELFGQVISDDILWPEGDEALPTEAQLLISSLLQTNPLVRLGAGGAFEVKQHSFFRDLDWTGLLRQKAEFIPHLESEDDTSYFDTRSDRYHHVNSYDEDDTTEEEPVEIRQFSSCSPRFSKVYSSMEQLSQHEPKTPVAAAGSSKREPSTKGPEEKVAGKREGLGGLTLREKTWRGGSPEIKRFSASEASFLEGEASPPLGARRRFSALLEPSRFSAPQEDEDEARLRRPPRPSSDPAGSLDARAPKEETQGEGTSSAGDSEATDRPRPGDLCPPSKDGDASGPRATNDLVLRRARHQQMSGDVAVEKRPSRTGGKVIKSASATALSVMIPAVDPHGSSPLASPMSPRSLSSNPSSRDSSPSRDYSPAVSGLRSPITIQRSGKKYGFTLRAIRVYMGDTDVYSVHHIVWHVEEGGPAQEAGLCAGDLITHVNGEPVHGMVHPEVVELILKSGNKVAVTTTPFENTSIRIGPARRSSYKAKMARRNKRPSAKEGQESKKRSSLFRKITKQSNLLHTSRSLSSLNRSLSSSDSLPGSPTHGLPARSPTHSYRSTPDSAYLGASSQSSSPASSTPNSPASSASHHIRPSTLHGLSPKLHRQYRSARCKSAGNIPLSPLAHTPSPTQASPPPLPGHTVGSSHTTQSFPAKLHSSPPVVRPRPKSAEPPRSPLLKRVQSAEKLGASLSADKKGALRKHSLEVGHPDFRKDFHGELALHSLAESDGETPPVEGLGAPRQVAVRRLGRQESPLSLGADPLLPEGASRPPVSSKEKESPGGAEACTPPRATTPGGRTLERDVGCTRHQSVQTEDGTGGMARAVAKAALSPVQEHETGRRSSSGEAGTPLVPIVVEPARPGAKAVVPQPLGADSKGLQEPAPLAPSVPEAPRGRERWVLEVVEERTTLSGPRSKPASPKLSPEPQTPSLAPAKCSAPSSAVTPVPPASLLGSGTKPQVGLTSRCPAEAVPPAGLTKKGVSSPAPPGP

Casein kinase I isoform gamma-3 (Homo sapiens), sequence (Q9Y6M4 whole entry, looked up, canonical isoform): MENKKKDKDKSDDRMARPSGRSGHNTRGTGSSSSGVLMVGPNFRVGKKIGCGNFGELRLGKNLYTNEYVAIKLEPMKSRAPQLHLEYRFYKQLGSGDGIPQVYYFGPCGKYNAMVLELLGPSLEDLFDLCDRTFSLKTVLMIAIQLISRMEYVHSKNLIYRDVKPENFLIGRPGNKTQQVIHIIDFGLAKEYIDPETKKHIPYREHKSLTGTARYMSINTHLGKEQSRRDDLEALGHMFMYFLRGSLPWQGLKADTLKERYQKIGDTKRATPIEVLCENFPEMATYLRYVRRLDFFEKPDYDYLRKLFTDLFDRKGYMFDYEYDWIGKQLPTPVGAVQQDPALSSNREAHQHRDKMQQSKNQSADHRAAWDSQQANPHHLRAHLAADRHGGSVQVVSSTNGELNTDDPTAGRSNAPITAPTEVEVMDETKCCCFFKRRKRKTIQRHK
Dual specificity protein kinase CLK4 (Homo sapiens), sequence (Q9HAZ1 whole entry, looked up, canonical isoform): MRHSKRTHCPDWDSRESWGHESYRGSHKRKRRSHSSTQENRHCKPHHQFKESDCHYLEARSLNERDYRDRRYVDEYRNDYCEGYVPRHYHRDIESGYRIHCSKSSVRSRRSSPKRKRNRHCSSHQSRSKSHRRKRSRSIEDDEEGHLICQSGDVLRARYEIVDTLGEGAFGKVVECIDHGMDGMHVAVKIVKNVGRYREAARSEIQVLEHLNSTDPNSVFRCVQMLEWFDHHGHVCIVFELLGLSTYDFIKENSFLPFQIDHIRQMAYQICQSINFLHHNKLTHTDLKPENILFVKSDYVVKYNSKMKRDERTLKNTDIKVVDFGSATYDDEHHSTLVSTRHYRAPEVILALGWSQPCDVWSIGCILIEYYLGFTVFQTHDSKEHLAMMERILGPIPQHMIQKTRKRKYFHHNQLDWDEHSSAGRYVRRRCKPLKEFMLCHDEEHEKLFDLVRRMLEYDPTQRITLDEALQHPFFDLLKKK
Mast/stem cell growth factor receptor Kit (Homo sapiens), P10721 [L576P], sequence (P10721 whole entry L576P): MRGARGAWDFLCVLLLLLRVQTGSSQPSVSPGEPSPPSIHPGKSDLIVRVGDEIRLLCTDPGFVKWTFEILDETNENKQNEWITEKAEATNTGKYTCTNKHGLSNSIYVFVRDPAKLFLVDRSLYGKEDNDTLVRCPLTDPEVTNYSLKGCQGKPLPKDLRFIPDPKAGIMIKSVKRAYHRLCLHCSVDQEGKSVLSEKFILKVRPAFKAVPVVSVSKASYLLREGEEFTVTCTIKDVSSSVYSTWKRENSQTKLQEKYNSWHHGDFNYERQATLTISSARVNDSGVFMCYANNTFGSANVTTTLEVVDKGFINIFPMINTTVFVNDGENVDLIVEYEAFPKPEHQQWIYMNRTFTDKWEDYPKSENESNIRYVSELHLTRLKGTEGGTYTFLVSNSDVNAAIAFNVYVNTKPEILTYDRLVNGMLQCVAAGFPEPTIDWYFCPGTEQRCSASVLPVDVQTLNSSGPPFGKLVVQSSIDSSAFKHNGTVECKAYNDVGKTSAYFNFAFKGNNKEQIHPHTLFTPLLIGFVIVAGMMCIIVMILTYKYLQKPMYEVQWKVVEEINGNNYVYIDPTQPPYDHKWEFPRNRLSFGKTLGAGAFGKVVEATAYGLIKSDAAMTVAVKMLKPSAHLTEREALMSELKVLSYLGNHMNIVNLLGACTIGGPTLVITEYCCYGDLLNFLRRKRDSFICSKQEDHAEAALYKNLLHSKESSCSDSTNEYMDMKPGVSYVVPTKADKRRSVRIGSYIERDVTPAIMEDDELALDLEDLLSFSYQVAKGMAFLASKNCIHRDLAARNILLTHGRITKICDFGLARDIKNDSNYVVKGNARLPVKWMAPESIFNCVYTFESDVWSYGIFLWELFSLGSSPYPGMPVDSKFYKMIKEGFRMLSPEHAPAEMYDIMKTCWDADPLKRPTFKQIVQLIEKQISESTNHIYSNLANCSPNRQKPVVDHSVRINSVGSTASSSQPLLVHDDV
5'-AMP-activated protein kinase catalytic subunit alpha-1 (Homo sapiens), sequence (Q13131 whole entry, looked up): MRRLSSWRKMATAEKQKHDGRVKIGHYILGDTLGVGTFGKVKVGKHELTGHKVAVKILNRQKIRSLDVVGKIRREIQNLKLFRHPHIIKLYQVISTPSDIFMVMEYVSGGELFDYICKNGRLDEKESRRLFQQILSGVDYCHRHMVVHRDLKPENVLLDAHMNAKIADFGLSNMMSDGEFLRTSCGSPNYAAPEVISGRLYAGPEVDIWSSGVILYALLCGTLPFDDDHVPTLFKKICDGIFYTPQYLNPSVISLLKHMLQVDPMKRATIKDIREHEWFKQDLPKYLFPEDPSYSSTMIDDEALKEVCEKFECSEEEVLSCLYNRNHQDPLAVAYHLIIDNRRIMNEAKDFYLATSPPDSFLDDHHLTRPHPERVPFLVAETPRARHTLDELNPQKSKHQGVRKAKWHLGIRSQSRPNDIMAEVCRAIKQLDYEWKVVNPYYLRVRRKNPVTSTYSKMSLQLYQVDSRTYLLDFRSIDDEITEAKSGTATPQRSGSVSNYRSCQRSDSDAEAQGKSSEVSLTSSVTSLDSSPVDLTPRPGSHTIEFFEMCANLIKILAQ
Tyrosine-protein kinase Fes/Fps (Homo sapiens), sequence (P07332 whole entry): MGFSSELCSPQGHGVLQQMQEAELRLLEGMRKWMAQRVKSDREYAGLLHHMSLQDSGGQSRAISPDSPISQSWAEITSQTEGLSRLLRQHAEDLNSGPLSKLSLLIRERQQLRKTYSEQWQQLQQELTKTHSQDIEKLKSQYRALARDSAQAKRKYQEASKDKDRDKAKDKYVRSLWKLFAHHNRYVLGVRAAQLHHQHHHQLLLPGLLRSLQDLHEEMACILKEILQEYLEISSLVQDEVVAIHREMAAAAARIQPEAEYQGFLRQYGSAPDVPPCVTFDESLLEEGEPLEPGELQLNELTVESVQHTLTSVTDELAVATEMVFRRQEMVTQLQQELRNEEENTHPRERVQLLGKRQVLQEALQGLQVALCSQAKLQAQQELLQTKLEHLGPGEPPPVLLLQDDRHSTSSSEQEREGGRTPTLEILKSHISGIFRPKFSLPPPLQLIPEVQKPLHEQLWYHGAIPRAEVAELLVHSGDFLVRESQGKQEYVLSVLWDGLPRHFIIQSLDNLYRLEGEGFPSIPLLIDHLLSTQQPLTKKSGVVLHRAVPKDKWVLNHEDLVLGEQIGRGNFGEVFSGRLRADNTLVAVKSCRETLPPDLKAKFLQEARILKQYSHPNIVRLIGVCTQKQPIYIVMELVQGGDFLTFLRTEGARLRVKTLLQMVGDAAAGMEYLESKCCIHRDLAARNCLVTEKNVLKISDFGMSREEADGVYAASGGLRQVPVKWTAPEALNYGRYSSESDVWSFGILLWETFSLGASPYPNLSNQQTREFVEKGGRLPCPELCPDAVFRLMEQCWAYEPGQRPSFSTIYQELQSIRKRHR

| SMILES | Activity [1] [%] | Activity [2] [%] | Activity [3] [%] | Activity [4] [%] | Activity [5] [%] | Activity [6] [%] | Activity [7] [%] | Activity [8] [%] | Activity [9] [%] | Activity [10] [%] |
| --- | --- | --- | --- | --- | --- | --- | --- | --- | --- | --- |
| COc1cc2nc(C)nc(N[C@H](C)c3cccc(-c4cn[nH]c4)c3)c2cc1OC | 45 | 82 | 93 | 80 | 45 | 94 | 85 | 92 | 82 | 64 |
| COc1cc2ncnc(N[C@H](C)c3cccc4ccccc34)c2cc1OC | 100 | 100 | 100 | 100 | 99 | 76 | 95 | 75 | 97 | 91 |
